Laboratory results taken from patent US12662479B2 (Foghorn Therapeutics Inc., priority 2020, dated 2026).

Key:
[1] = biological target: T1, HiBit-BRG1 fusion protein (Homo sapiens, UniProt P51532); assay: HiBiT-BRG1 cell-based degradation assay (Nano-Glo HiBiT Lytic Detection, 24 h); details: HeLa cells expressing HiBit-BRG1 and LgBit; for DC50: read-out: BRG1 HiBit Degradation IC50; for Dmax: HeLa, top dose 30 μM, read-out: BRG1 HiBit Degradation Maximum measured
T1 construct: expressed in transfected cells
T1 sequence (P51532 whole entry, the tested form may be a part): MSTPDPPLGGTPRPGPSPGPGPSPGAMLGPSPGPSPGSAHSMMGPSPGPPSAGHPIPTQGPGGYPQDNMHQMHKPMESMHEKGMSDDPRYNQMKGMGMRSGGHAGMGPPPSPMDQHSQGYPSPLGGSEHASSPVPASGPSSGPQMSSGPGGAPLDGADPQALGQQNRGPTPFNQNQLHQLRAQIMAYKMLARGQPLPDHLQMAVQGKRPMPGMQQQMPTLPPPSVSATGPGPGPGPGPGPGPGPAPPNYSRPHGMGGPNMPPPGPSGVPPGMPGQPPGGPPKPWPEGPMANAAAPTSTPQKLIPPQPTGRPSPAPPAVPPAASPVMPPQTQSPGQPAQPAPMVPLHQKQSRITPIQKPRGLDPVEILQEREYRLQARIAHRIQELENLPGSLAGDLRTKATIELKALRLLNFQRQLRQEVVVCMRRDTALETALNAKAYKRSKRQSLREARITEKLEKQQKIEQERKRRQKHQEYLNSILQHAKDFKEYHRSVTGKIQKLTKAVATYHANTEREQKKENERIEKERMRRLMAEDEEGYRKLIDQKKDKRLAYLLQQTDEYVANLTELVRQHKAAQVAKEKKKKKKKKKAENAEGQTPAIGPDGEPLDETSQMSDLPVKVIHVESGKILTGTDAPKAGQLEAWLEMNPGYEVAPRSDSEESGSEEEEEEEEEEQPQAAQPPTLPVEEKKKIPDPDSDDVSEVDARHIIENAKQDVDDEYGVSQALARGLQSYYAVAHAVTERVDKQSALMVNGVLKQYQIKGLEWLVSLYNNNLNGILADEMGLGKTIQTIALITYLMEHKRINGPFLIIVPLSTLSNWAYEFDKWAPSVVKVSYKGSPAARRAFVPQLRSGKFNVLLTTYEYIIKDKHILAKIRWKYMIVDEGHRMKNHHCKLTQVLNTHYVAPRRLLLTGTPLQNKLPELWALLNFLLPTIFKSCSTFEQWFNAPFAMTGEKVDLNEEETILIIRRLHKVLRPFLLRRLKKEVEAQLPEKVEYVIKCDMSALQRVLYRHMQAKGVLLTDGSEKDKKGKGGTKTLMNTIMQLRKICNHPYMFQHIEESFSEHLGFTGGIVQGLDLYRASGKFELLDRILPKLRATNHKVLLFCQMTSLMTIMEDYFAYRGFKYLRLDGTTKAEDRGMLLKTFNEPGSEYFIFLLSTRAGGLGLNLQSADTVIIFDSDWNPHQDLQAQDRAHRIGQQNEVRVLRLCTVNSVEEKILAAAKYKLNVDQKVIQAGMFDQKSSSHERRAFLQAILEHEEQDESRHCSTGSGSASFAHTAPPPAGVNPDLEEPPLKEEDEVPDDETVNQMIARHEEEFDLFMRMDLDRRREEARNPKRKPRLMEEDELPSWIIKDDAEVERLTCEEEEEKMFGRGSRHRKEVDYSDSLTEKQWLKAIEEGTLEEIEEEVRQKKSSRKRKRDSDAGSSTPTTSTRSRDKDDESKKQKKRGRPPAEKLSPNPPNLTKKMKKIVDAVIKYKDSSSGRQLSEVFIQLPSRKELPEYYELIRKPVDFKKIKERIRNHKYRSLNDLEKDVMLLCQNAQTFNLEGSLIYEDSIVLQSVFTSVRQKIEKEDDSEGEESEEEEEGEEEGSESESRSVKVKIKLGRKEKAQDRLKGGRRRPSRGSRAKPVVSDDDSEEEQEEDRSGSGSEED
Procedure, shortened: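 Degradation is scaled from DMSO-treated cells (0%) to cells given 2 μM of a known BRM/BRG1 degrader (100%). HeLa cells stably carrying HiBiT-BRG1 plus LgBiT (5000/well) were lysed with Nano-Glo HiBiT detection reagent, shaken 10 min at RT, and luminescence read.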

[2] = biological target: T2, HiBit-BRM fusion protein (Homo sapiens, UniProt P51531); assay: HiBiT-BRM cell-based degradation assay (Nano-Glo HiBiT Lytic Detection, 24 h); details: HeLa cells expressing HiBiT-BRM; for DC50: read-out: BRM HiBit Degradation IC50; for BRM HiBit Degradation Maximum measured: top dose 30 μM
T2 construct: expressed in transfected cells
T2 sequence (P51531 whole entry, the tested form may be a part): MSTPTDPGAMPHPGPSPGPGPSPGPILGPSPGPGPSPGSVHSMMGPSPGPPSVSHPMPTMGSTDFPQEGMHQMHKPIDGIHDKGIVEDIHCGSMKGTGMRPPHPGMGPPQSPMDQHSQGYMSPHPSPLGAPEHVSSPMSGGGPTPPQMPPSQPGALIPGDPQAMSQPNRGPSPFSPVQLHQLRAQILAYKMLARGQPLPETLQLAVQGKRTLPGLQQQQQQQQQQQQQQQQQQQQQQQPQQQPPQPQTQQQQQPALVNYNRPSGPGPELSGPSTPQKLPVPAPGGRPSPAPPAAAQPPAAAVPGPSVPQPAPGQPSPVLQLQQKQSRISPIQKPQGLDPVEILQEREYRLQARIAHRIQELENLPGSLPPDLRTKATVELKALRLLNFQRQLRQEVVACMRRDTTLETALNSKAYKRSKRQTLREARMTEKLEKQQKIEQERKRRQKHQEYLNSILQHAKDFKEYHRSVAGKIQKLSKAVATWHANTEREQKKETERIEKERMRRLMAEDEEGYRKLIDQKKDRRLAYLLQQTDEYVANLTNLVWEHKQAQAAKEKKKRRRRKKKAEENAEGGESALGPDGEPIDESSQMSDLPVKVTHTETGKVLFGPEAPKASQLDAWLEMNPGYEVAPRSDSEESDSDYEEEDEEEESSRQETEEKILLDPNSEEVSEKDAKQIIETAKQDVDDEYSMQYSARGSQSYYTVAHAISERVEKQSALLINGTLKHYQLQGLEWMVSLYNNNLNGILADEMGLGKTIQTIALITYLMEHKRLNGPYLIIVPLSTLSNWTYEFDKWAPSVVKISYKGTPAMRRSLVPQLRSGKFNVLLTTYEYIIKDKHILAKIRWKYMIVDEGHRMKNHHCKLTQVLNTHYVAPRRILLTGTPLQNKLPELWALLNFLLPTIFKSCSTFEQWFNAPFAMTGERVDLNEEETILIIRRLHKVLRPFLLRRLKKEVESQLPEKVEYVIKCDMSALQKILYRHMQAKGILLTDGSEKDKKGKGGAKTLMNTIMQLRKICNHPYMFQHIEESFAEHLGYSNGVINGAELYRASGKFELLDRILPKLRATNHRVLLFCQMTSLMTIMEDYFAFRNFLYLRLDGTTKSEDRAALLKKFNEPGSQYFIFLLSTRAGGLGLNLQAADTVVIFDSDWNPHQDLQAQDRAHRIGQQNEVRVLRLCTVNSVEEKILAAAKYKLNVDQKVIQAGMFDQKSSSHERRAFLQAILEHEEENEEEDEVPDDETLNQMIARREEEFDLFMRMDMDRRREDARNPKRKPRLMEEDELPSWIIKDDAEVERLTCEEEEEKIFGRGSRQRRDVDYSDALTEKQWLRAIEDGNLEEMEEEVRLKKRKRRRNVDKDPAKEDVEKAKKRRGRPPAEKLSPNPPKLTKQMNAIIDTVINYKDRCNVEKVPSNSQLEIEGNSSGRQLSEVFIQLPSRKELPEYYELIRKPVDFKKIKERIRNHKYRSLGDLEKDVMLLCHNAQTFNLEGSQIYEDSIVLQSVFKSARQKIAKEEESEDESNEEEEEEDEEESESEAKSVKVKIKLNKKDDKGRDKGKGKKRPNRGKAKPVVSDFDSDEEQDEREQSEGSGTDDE
Procedure, shortened: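 Percent BRM loss was derived from HiBiT luminescence relative to DMSO-treated cells and cells given 2 μM of a known BRM/BRG1 degrader. Treatment lasted 24 h in HiBiT-BRM HeLa cells, with a top final concentration of 30 μM.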

DC50 [1]	Dmax [1]	DC50 [2]	BRM HiBit Degradation Maximum measured [2]	SMILES
100 to 1000 nM	50 to 75%	> 10000 nM	C (‘C’ = Maximum degradation <50%)	CS(=O)(=O)n1ccc(C(=O)NCC(=O)Nc2nc(-c3cccc(-c4cccc(CNC(=O)CCCCCCOc5cccc6c5C(=O)N(C5CCC(=O)NC5=O)C6=O)c4)c3)cs2)c1 (centres unmarked) [Compound 43, N-(2-((4-(3′-((7-((2-(2,6-dioxopiperidin-3-yl)-1,3-dioxoisoindolin-4-yl)oxy)heptanamido)methyl)-[1,1′-biphenyl]-3-yl)thiazol-2-yl)amino)-2-oxoethyl)-1-(methylsulfonyl)-1H-pyrrole-3-carboxamide]
> 10000 nM	< 50%	> 10000 nM	C (‘C’ = Maximum degradation <50%)	CS(=O)(=O)n1ccc(C(=O)NCC(=O)Nc2nc(-c3cccc(-c4cccc(CNC(=O)CCOCCOCCNc5ccc6c(c5)C(=O)N(C5CCC(=O)NC5=O)C6=O)c4)c3)cs2)c1 (centres unmarked) [Compound 45, N-(2-((4-(3′-((3-(2-(2-((2-(2,6-dioxopiperidin-3-yl)-1,3-dioxoisoindolin-5-yl)amino)ethoxy)ethoxy)propanamido)-methyl)-[1,1′-biphenyl]-3-yl)thiazol-2-yl)amino)-2-oxoethyl)-1-(methylsulfonyl)-1H-pyrrole-3-carboxamide]
1000 to 10000 nM	50 to 75%	> 10000 nM	C (‘C’ = Maximum degradation <50%)	Cc1ncsc1-c1ccc(CNC(=O)[C@@H]2C[C@@H](O)CN2C(=O)[C@@H](NC(=O)CCCCC(=O)NCc2cccc(-c3cccc(-c4csc(NC(=O)CNC(=O)c5ccn(S(C)(=O)=O)c5)n4)c3)c2)C(C)(C)C)cc1 [Compound 48, N1-((S)-1-((2S,4R)-4-hydroxy-2-((4-(4-methylthiazol-5-yl)benzyl)carbamoyl)pyrrolidin-1-yl)-3,3-dimethyl-1-oxobutan-2-yl)-N6-((3′-(2-(2-(1-(methylsulfonyl)-1H-pyrrole-3-carboxamido)acetamido)thiazol-4-yl)-[1,1′-biphenyl]-3-yl)methyl)adipamide]
< 100 nM	> 75%	< 100 nM	A (‘A’ = Maximum degradation >75%)	Cc1ncsc1-c1ccc(CNC(=O)[C@@H]2C[C@@H](O)CN2C(=O)[C@@H](NC(=O)CCCCCCCC(=O)NCc2cccc(-c3cccc(-c4csc(NC(=O)CNC(=O)c5ccn(S(C)(=O)=O)c5)n4)c3)c2)C(C)(C)C)cc1 [Compound 49, N1-((S)-1-((2S,4R)-4-hydroxy-2-((4-(4-methylthiazol-5-yl)benzyl)carbamoyl)pyrrolidin-1-yl)-3,3-dimethyl-1-oxobutan-2-yl)-N9-((3′-(2-(2-(1-(methylsulfonyl)-1H-pyrrole-3-carboxamido)acetamido)thiazol-4-yl)-[1,1′-biphenyl]-3-yl)methyl)nonanediamide]
100 to 1000 nM	> 75%	100 to 1000 nM	A (‘A’ = Maximum degradation >75%)	Cc1ncsc1-c1ccc(CNC(=O)[C@@H]2C[C@@H](O)CN2C(=O)[C@@H](NC(=O)CCCCCCC(=O)NCc2cccc(-c3cccc(-c4csc(NC(=O)CNC(=O)c5ccn(S(C)(=O)=O)c5)n4)c3)c2)C(C)(C)C)cc1 [Compound 50, N1-((S)-1-((2S,4R)-4-hydroxy-2-((4-(4-methylthiazol-5-yl)benzyl)carbamoyl)pyrrolidin-1-yl)-3,3-dimethyl-1-oxobutan-2-yl)-N8-((3′-(2-(2-(1-(methylsulfonyl)-1H-pyrrole-3-carboxamido)acetamido)thiazol-4-yl)-[1,1′-biphenyl]-3-yl)methyl)octanediamide]
100 to 1000 nM	50 to 75%	> 10000 nM	C (‘C’ = Maximum degradation <50%)	CS(=O)(=O)n1ccc(C(=O)NCC(=O)Nc2nc(-c3cccc(-c4cccc(CNC(=O)CCCCCCCCCCNc5cccc6c5C(=O)N(C5CCC(=O)NC5=O)C6=O)c4)c3)cs2)c1 (centres unmarked) [Compound 51, N-[2-[[4-[3-[3-[[11-[[2-(2,6-dioxo-3-piperidyl)-1,3-dioxo-isoindolin-4-yl]amino]undecanoylamino]methyl]-phenyl]phenyl]thiazol-2-yl]amino]-2-oxo-ethyl]-1-methylsulfonyl-pyrrole-3-carboxamide]
100 to 1000 nM	50 to 75%	> 10000 nM	C (‘C’ = Maximum degradation <50%)	CS(=O)(=O)n1ccc(C(=O)NCC(=O)Nc2nc(-c3cccc(-c4cccc(CNC(=O)CCCCCCCCCCNc5ccc6c(c5)C(=O)N(C5CCC(=O)NC5=O)C6=O)c4)c3)cs2)c1 (centres unmarked) [Compound 52]
< 100 nM	> 75%	< 100 nM	A (‘A’ = Maximum degradation >75%)	CS(=O)(=O)n1ccc(C(=O)NCC(=O)Nc2nc(-c3cccc(-c4ccnc(C5(C(=O)NCCCCCCNc6ccc7c(c6)CN(C6CCC(=O)NC6=O)C7=O)CC5)c4)c3)cs2)c1 (centres unmarked) [Compound 53, N-(6-[[2-(2,6-dioxopiperidin-3-yl)-1-oxo-3H-isoindol-5-yl]amino]hexyl)-1-[4-[3-(2-[2-[(1-methanesulfonylpyrrol-3-yl)formamido]acetamido]-1,3-thiazol-4-yl)phenyl]pyridin-2-yl]cyclopropane-1-carboxamide]
> 10000 nM	< 50%	> 10000 nM	C (‘C’ = Maximum degradation <50%)	CS(=O)(=O)n1ccc(C(=O)NCC(=O)Nc2nc(-c3cccc(-c4cccc(CNC(=O)CCCCCCCCNc5ccc6c(c5)C(=O)N(C5CCC(=O)NC5=O)C6=O)c4)c3)cs2)c1 (centres unmarked) [Compound 54, N-[2-[[4-[3-[3-[[9-[[2-(2,6-dioxo-3-piperidyl)-1,3-dioxo-isoindolin-5-yl]amino]nonanoylamino]methyl]-phenyl]phenyl]thiazol-2-yl]amino]-2-oxo-ethyl]-1-methylsulfonyl-pyrrole-3-carboxamide]

SMILES	DC50 [1]	Dmax [1]	DC50 [2]	BRM HiBit Degradation Maximum measured [2]
Cc1ncsc1-c1ccc(CNC(=O)[C@@H]2C[C@@H](O)CN2C(=O)[C@@H](NC(=O)COCCOCC(=O)NCc2cccc(-c3cccc(-c4csc(NC(=O)CNC(=O)c5ccn(S(C)(=O)=O)c5)n4)c3)c2)C(C)(C)C)cc1 [Compound 44, N-(2-((4-(3′-((S)-12-((2S,4R)-4-hydroxy-2-((4-(4-methylthiazol-5-yl)benzyl)carbamoyl)pyrrolidine-1-carbonyl)-13,13-dimethyl-3,10-dioxo-5,8-dioxa-2,11-diazatetradecyl)-[1,1′-biphenyl]-3-yl)thiazol-2-yl)amino)-2-oxoethyl)-1-(methylsulfonyl)-1H-pyrrole-3-carboxamide]	1000 to 10000 nM	> 75%	1000 to 10000 nM	B (‘B’ = Maximum degradation ≥50% and ≤75%)
Cc1ncsc1-c1ccc(CNC(=O)[C@@H]2C[C@@H](O)CN2C(=O)[C@@H](NC(=O)CCCCCCCCCNC(=O)CN(C)c2cc(-c3cccc(-c4csc(NC(=O)CNC(=O)c5ccn(S(C)(=O)=O)c5)n4)c3)ccn2)C(C)(C)C)cc1 [Compound 47]	< 100 nM	50 to 75%	< 100 nM	B (‘B’ = Maximum degradation ≥50% and ≤75%)
